Measured values from ChEMBL document CHEMBL3885861, “Open TG-GATES”.

Organism: Rattus norvegicus
Assay: Open TG-GATES - Regimen: Single
Format: toxicity, organism-based, Sprague-Dawley
Parameters: regimen Single, gender Male, age 6 weeks
Conditions: in vivo, ip, route intraperitoneal injection; for APTT / Bas / Eos / Fbg / Hb / Ht / Lym / MCH / MCHC / MCV / Mono / Neu / PT / Plat / RBC / Ret / WBC: tissue Blood; for KIDNEY_L / KIDNEY_R / KIDNEY_TOTAL: tissue Kidney; for LIVER: tissue Liver; for A/G / ALP / ALT / AST / BUN / CRE / Ca / Cl / DBIL / GLC / IP / K / LDH / Na / PL / RALB / TBIL / TC / TG / TP / gamma-GTP: tissue Plasma
[1] = 0 mg/kg, 3 h, dose level Control
[2] = 0 mg/kg, 6 h, dose level Control
[3] = 0 mg/kg, 9 h, dose level Control
[4] = 0 mg/kg, 24 h, dose level Control
[5] = 150 mg/kg, 24 h, dose level Low

## CCCCS(=N)(=O)CCC(N)C(=O)O (centres undefined) [BUTHIONINE SULFOXIMINE]
[1]
  TERMINAL_BW: 217.4 g
  APTT: 16.3 s
  Bas: 0%
  Eos: 0.6%
  Fbg: 214.6 mg/dL
  Hb: 13.1 g/dL
  Ht: 39.2%
  Lym: 66.4%
  MCH: 21.9 pg
  MCHC: 33.4%
  MCV: 65.6 fL
  Mono: 10%
  Neu: 23.4%
  PT: 11.9 s
  Plat: 108.9 x10_4/uL
  RBC: 598.2 x10_4/ul
  Ret: 8.3%
  WBC: 104.5 x10_2/uL
  KIDNEY_L: 1 g
  KIDNEY_R: 1 g
  KIDNEY_TOTAL: 2 g
  LIVER: 10.4 g
  A/G: 2.3
  ALP: 962.6 IU/L
  ALT: 44 IU/L
  AST: 81 IU/L
  BUN: 12.8 mg/dL
  CRE: 0.5 mg/dL
  Ca: 10.9 mg/dL
  Cl: 104.4 meq/L
  DBIL: 0.086 mg/dL
  GLC: 190 mg/dL
  IP: 10.5 mg/dL
  K: 4.6 meq/L
  LDH: 100.4 IU/L
  Na: 140.6 meq/L
  PL: 139.6 mg/dL
  RALB: 3.7 g/dL
  TBIL: 0.4 mg/dL
  TC: 76 mg/dL
  TG: 63.8 mg/dL
  TP: 5.4 g/dL
  gamma-GTP: 1.2 IU/L
[2]
  TERMINAL_BW: 211.9 g
  APTT: 16.7 s
  Bas: 0%
  Eos: 0.8%
  Fbg: 221 mg/dL
  Hb: 13.3 g/dL
  Ht: 39.9%
  Lym: 68.2%
  MCH: 21.9 pg
  MCHC: 33.3%
  MCV: 65.9 fL
  Mono: 5%
  Neu: 26%
  PT: 10.8 s
  Plat: 112.3 x10_4/uL
  RBC: 605.2 x10_4/ul
  Ret: 9.1%
  WBC: 106.4 x10_2/uL
  KIDNEY_L: 1 g
  KIDNEY_R: 1 g
  KIDNEY_TOTAL: 1.9 g
  LIVER: 9.5 g
  A/G: 2
  ALP: 754.6 IU/L
  ALT: 38.2 IU/L
  AST: 68 IU/L
  BUN: 11.4 mg/dL
  CRE: 0.7 mg/dL
  Ca: 10.9 mg/dL
  Cl: 105.6 meq/L
  DBIL: 0.014 mg/dL
  GLC: 197.6 mg/dL
  IP: 9.8 mg/dL
  K: 4.9 meq/L
  LDH: 58.2 IU/L
  Na: 140.2 meq/L
  PL: 139.4 mg/dL
  RALB: 3.5 g/dL
  TBIL: 0.4 mg/dL
  TC: 78.2 mg/dL
  TG: 62.8 mg/dL
  TP: 5.3 g/dL
  gamma-GTP: 1.6 IU/L
[3]
  TERMINAL_BW: 214.6 g
  APTT: 17.1 s
  Bas: 0%
  Eos: 1%
  Fbg: 231 mg/dL
  Hb: 13.4 g/dL
  Ht: 40.5%
  Lym: 74.8%
  MCH: 21.5 pg
  MCHC: 33%
  MCV: 65.1 fL
  Mono: 5.6%
  Neu: 19%
  PT: 11 s
  Plat: 114 x10_4/uL
  RBC: 622.2 x10_4/ul
  Ret: 9.5%
  WBC: 101.1 x10_2/uL
  KIDNEY_L: 1 g
  KIDNEY_R: 1 g
  KIDNEY_TOTAL: 1.9 g
  LIVER: 8.9 g
  A/G: 2.1
  ALP: 838 IU/L
  ALT: 34.4 IU/L
  AST: 65.8 IU/L
  BUN: 12.8 mg/dL
  CRE: 0.5 mg/dL
  Ca: 11 mg/dL
  Cl: 106 meq/L
  DBIL: 0.006 mg/dL
  GLC: 203.4 mg/dL
  IP: 10.3 mg/dL
  K: 4.9 meq/L
  LDH: 60.8 IU/L
  Na: 139.2 meq/L
  PL: 146.6 mg/dL
  RALB: 3.8 g/dL
  TBIL: 0.3 mg/dL
  TC: 85 mg/dL
  TG: 57 mg/dL
  TP: 5.6 g/dL
  gamma-GTP: 1.2 IU/L
[4]
  TERMINAL_BW: 226.3 g
  APTT: 17.2 s
  Bas: 0%
  Eos: 1%
  Fbg: 231.6 mg/dL
  Hb: 13.6 g/dL
  Ht: 41%
  Lym: 75.4%
  MCH: 21.3 pg
  MCHC: 33.1%
  MCV: 64.5 fL
  Mono: 8.4%
  Neu: 15.2%
  PT: 11.4 s
  Plat: 115.5 x10_4/uL
  RBC: 636.4 x10_4/ul
  Ret: 8.8%
  WBC: 88.5 x10_2/uL
  KIDNEY_L: 1 g
  KIDNEY_R: 1 g
  KIDNEY_TOTAL: 2 g
  LIVER: 11 g
  A/G: 1.8
  ALP: 826.4 IU/L
  ALT: 37.8 IU/L
  AST: 63.2 IU/L
  BUN: 17.8 mg/dL
  CRE: 0.5 mg/dL
  Ca: 11.2 mg/dL
  Cl: 103.6 meq/L
  DBIL: 0.008 mg/dL
  GLC: 210.6 mg/dL
  IP: 9 mg/dL
  K: 4.8 meq/L
  LDH: 89.2 IU/L
  Na: 139.6 meq/L
  PL: 163.4 mg/dL
  RALB: 3.7 g/dL
  TBIL: 0.3 mg/dL
  TC: 83.2 mg/dL
  TG: 109.2 mg/dL
  TP: 5.8 g/dL
  gamma-GTP: 1.6 IU/L
150 mg/kg, 3 h, dose level Low
  TERMINAL_BW: 216.6 g
  APTT: 16.5 s
  Bas: 0%
  Eos: 0.8%
  Fbg: 216.4 mg/dL
  Hb: 13 g/dL
  Ht: 40%
  Lym: 74.8%
  MCH: 21.5 pg
  MCHC: 32.6%
  MCV: 66 fL
  Mono: 6%
  Neu: 18.6%
  PT: 12.1 s
  Plat: 112.9 x10_4/uL
  RBC: 606.2 x10_4/ul
  Ret: 9.2%
  WBC: 102.3 x10_2/uL
  KIDNEY_L: 0.9 g
  KIDNEY_R: 1 g
  KIDNEY_TOTAL: 1.9 g
  LIVER: 10.3 g
  A/G: 2.3
  ALP: 957.2 IU/L
  ALT: 38.8 IU/L
  AST: 70.8 IU/L
  BUN: 13.6 mg/dL
  CRE: 0.5 mg/dL
  Ca: 10.9 mg/dL
  Cl: 104.8 meq/L
  DBIL: 0.08 mg/dL
  GLC: 193 mg/dL
  IP: 9.3 mg/dL
  K: 4.7 meq/L
  LDH: 91.8 IU/L
  Na: 139.8 meq/L
  PL: 133.8 mg/dL
  RALB: 3.8 g/dL
  TBIL: 0.3 mg/dL
  TC: 73.4 mg/dL
  TG: 58.4 mg/dL
  TP: 5.4 g/dL
  gamma-GTP: 1.2 IU/L
150 mg/kg, 6 h, dose level Low
  TERMINAL_BW: 216 g
  APTT: 16.4 s
  Bas: 0%
  Eos: 0.6%
  Fbg: 217.8 mg/dL
  Hb: 13.3 g/dL
  Ht: 39.8%
  Lym: 70%
  MCH: 22.2 pg
  MCHC: 33.6%
  MCV: 66.2 fL
  Mono: 8.6%
  Neu: 20.8%
  PT: 11.2 s
  Plat: 109.8 x10_4/uL
  RBC: 600.6 x10_4/ul
  Ret: 9.3%
  WBC: 102.1 x10_2/uL
  KIDNEY_L: 1 g
  KIDNEY_R: 1 g
  KIDNEY_TOTAL: 2 g
  LIVER: 9.7 g
  A/G: 1.8
  ALP: 849.4 IU/L
  ALT: 32.8 IU/L
  AST: 72 IU/L
  BUN: 13 mg/dL
  CRE: 0.6 mg/dL
  Ca: 10.8 mg/dL
  Cl: 105.6 meq/L
  DBIL: 0 mg/dL
  GLC: 191 mg/dL
  IP: 9.5 mg/dL
  K: 4.6 meq/L
  LDH: 73.2 IU/L
  Na: 140.2 meq/L
  PL: 131.4 mg/dL
  RALB: 3.4 g/dL
  TBIL: 0.4 mg/dL
  TC: 71.8 mg/dL
  TG: 63.4 mg/dL
  TP: 5.2 g/dL
  gamma-GTP: 1.4 IU/L
150 mg/kg, 9 h, dose level Low
  TERMINAL_BW: 212.7 g
  APTT: 16.6 s
  Bas: 0%
  Eos: 1.2%
  Fbg: 232.6 mg/dL
  Hb: 13 g/dL
  Ht: 38.7%
  Lym: 59.6%
  MCH: 22.1 pg
  MCHC: 33.7%
  MCV: 65.6 fL
  Mono: 4.2%
  Neu: 35.2%
  PT: 11.2 s
  Plat: 112.1 x10_4/uL
  RBC: 589.8 x10_4/ul
  Ret: 10.3%
  WBC: 124.2 x10_2/uL
  KIDNEY_L: 1 g
  KIDNEY_R: 1 g
  KIDNEY_TOTAL: 2 g
  LIVER: 8.7 g
  A/G: 1.9
  ALP: 803.6 IU/L
  ALT: 33.6 IU/L
  AST: 69 IU/L
  BUN: 10.4 mg/dL
  CRE: 0.5 mg/dL
  Ca: 10.9 mg/dL
  Cl: 105.8 meq/L
  DBIL: 0.024 mg/dL
  GLC: 196.8 mg/dL
  IP: 9.7 mg/dL
  K: 4.9 meq/L
  LDH: 94 IU/L
  Na: 139 meq/L
  PL: 143.4 mg/dL
  RALB: 3.5 g/dL
  TBIL: 0.4 mg/dL
  TC: 89.6 mg/dL
  TG: 33.8 mg/dL
  TP: 5.4 g/dL
  gamma-GTP: 1.8 IU/L
[5]
  TERMINAL_BW: 227.8 g
  APTT: 16.9 s
  Bas: 0%
  Eos: 1.4%
  Fbg: 242.2 mg/dL
  Hb: 13.1 g/dL
  Ht: 39.2%
  Lym: 77.8%
  MCH: 21.8 pg
  MCHC: 33.5%
  MCV: 65.1 fL
  Mono: 6%
  Neu: 14.6%
  PT: 11.5 s
  Plat: 125.6 x10_4/uL
  RBC: 602.2 x10_4/ul
  Ret: 9.2%
  WBC: 76.2 x10_2/uL
  KIDNEY_L: 1 g
  KIDNEY_R: 1 g
  KIDNEY_TOTAL: 1.9 g
  LIVER: 11.2 g
  A/G: 1.8
  ALP: 977.2 IU/L
  ALT: 31.4 IU/L
  AST: 61.4 IU/L
  BUN: 19.4 mg/dL
  CRE: 0.5 mg/dL
  Ca: 11.3 mg/dL
  Cl: 104 meq/L
  DBIL: 0.01 mg/dL
  GLC: 209 mg/dL
  IP: 8.4 mg/dL
  K: 4.5 meq/L
  LDH: 86 IU/L
  Na: 139.8 meq/L
  PL: 156.6 mg/dL
  RALB: 3.7 g/dL
  TBIL: 0.3 mg/dL
  TC: 88.2 mg/dL
  TG: 101 mg/dL
  TP: 5.9 g/dL
  gamma-GTP: 1 IU/L
